Values after ≈ are worked out from the molar mass of the structure shown. Like-named read-outs stand apart in the source and are kept apart here. Positions of bridges follow the written chain, without caps; N, C: chain ends. Non-standard residues stand in square brackets, D forms with d. Residues, ends and D or L forms follow the SMILES beside them. Phe(3-CF3) = N[C@@H](Cc1cccc(C(F)(F)F)c1)C(=O)O; Lys(N3) = [N-]=[N+]=NCCCC[C@H](N)C(=O)O; R8 = C=CCCCCCC[C@@](C)(N)C(=O)O; Cba = N[C@@H](CC1CCC1)C(=O)O; S5 = C=CCCC[C@](C)(N)C(=O)O; βAla = NCCC(=O)O
Legend:
[1] = Solubility assay (kinetic solubility, PBS pH 7); type: physicochemical; conditions: pH 7, PBS; for solubility kinetic: pH 7, aqueous buffer, kinetic from dmso stock, read-out: Solubility
Outline: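 Std: 10 mM stock → 100 µM in ACN/MeOH/DMSO (10:80:10). Sol. [µM] = (sample peak area / std peak area) × std conc.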

HCT116 cells = experiment: Lactate dehydrogenase (LDH) release assay; type: cell-based
Outline: (§1)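 Read-out was lactate dehydrogenase release, reflecting loss of membrane integrity, in reporter-engineered HCT116 cells (p53-responsive β-lactamase) seeded at 8000 cells per well. Final DMSO was 0.5%, and reported values are geometric means from three or more biological repeats.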

[2] = Lactate dehydrogenase (LDH) release assay; type: cell-based
Outline: as §1

[3] = Nanoclick permeability assay
Outline: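 Azido-peptide permeability was read as loss of NanoBRET signal (donor 450 nm, acceptor 610 nm) after adding NanoBret618-azide at 10 μM final.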

[4] = Experimental LogD (partition coefficient); conditions: for logD: Partition Coeff LogD
[5] = Nanoclick permeability assay EC50

SMILES | solubility kinetic [1] [µM] | LDH: Cytotoxicity assay: % Effect (HCT116 cells; 0% FBS 4Hr) [%] | LDH: Cytotoxicity assay: % Effect (HCT116 cells; 10% FBS 4Hr) [%] | LDH: Cytotoxicity assay: % Effect (HCT116 cells; 10% FBS 16Hr) [%] | EC50 ([2]; 0% FBS 4Hr, read-out: LDH: Cytotoxicity assay: EC50) [µM] | EC50 ([2]; 10% FBS 4Hr, read-out: LDH: Cytotoxicity assay: EC50) [µM] | EC50 ([2]; 10% FBS 16Hr, read-out: LDH: Cytotoxicity assay: EC50) [µM] | EPSA (physchem) [A^2] | cell entry EC50 [3] [µM] | logD ([4]; experimental) | logD ([4]; not stated) | Solubility [1] | LDH: Cytotoxicity assay: % Effect (HCT116 cells) [%] | EC50 ([2]; LDH: Cytotoxicity assay: EC50) [µM] | cell entry EC50 [3, 5] [µM] | Partition Coeff LogD [4]
CC(=O)N[C@@H](CCCCN=[N+]=[N-])C(=O)NCCC(=O)N[C@@H](C)C(=O)N[C@H](C(=O)N[C@@H](Cc1ccccc1)C(=O)N[C@]1(C)CCCCCCC=CCCC[C@@](C)(C(=O)N[C@@H](C)C(=O)N[C@@H](C)C(=O)N[C@@H](C)C(N)=O)NC(=O)[C@H](CC2CCC2)NC(=O)[C@H](C)NC(=O)[C@H](C)NC(=O)[C@H](Cc2c[nH]c3ccccc23)NC(=O)[C@H](Cc2ccc(O)cc2)NC(=O)[C@H](C)NC1=O)[C@@H](C)O [MP-350, Azide-ATSP-7041 (L1A, E5A, Q9A, S12A)] (Ac-[Lys(N3)][βAla]ATF[R8]AYWAA[Cba][S5]AAA-NH2; staple 6-13) | 2 (≈ 3.59 µg/mL) | -5.38 | 108.5 | -2.204 | > 50.7 | > 50 | > 50.7 | 196 | 0.695 | 3.37 | 3.37 |  |  |  |  | 
CC(=O)N[C@@H](CCCCN=[N+]=[N-])C(=O)NCCC(=O)N[C@@H](CC(C)C)C(=O)N[C@H](C(=O)N[C@@H](Cc1ccccc1)C(=O)N[C@]1(C)CCCCCCC=CCCC[C@@](C)(C(=O)N[C@@H](CO)C(=O)N[C@@H](C)C(=O)N[C@@H](C)C(N)=O)NC(=O)[C@H](CC2CCC2)NC(=O)[C@H](CCC(N)=O)NC(=O)[C@H](C)NC(=O)[C@H](Cc2c[nH]c3ccccc23)NC(=O)[C@@H](CCC(=O)O)NC(=O)[C@H](C)NC1=O)[C@@H](C)O [MP-036] (Ac-[Lys(N3)][βAla]LTF[R8]A[dE]WAQ[Cba][S5]SAA-NH2; staple 6-13) |  |  |  |  |  |  |  | 188 |  |  |  | Poorly Behaved | 2.628 | > 50.6 | 0.053 | Poorly Behaved
CC(=O)N[C@@H](CCCCN=[N+]=[N-])C(=O)NCCC(=O)N[C@@H](CC(C)C)C(=O)N[C@H](C(=O)N[C@@H](Cc1ccccc1)C(=O)N[C@]1(C)CCCCCCC=CCCC[C@@](C)(C(=O)N[C@@H](CO)C(=O)N(C)[C@@H](C)C(=O)N[C@@H](C)C(N)=O)NC(=O)[C@H](CC2CCC2)NC(=O)[C@H](CCC(N)=O)NC(=O)[C@H](C)NC(=O)[C@H](Cc2c[nH]c3ccccc23)NC(=O)[C@H](Cc2ccc(O)cc2)NC(=O)[C@H](CCC(=O)O)NC1=O)[C@@H](C)O [MP-3353] | 33 (≈ 65.5 µg/mL) |  |  |  |  |  |  | 202 |  |  | 2.67 |  | 1.89 | > 50.6 | 0.232 | 
CC(=O)N[C@@H](CCCCN=[N+]=[N-])C(=O)NCCC(=O)N[C@@H](CC(C)C)C(=O)N[C@H](C(=O)N[C@@H](Cc1ccccc1)C(=O)N[C@]1(C)CCCCCCC=CCCC[C@@](C)(C(=O)N2CCC[C@H]2C(=O)N[C@@H](C)C(=O)N[C@@H](C)C(N)=O)NC(=O)[C@H](CC2CCC2)NC(=O)[C@H](CCC(N)=O)NC(=O)[C@H](C)NC(=O)[C@H](Cc2c[nH]c3ccccc23)NC(=O)[C@H](Cc2ccc(O)cc2)NC(=O)[C@H](CCC(=O)O)NC1=O)[C@@H](C)O [MP-184] (Ac-[Lys(N3)][βAla]LTF[R8]EYWAQ[Cba][S5]PAA-NH2; staple 6-13) |  |  |  |  |  |  |  | 201 |  |  |  | Poorly Behaved | 10.48 | > 50.6 | 0.36 | Poorly Behaved
CC(=O)N[C@@H](CCCCN=[N+]=[N-])C(=O)NCCC(=O)N1CCC[C@H]1C(=O)N[C@H](C(=O)N[C@@H](Cc1ccccc1)C(=O)N[C@]1(C)CCCCCCC=CCCC[C@@](C)(C(=O)N[C@@H](CO)C(=O)N[C@@H](C)C(=O)N[C@@H](C)C(N)=O)NC(=O)[C@H](CC2CCC2)NC(=O)[C@H](CCC(N)=O)NC(=O)[C@H](C)NC(=O)[C@H](Cc2c[nH]c3ccccc23)NC(=O)[C@H](Cc2ccc(O)cc2)NC(=O)[C@H](CCC(=O)O)NC1=O)[C@@H](C)O [MP-259] (Ac-[Lys(N3)][βAla]PTF[R8]EYWAQ[Cba][S5]SAA-NH2; staple 6-13) | 90.5 (≈ 177 µg/mL) |  |  |  |  |  |  | 221 |  |  | 2.67 |  | 7.47 | > 50.6 | 0.29 | 
CC(C)C[C@@H]1NC(=O)[C@H](C)NC(=O)[C@H](Cc2c[nH]c3ccccc23)NC(=O)[C@H](Cc2ccc(O)cc2)NC(=O)[C@H](CCC(=O)O)NC(=O)[C@](C)(NC(=O)[C@H](Cc2ccccc2)NC(=O)[C@H](CO)NC(=O)[C@@H](NC(=O)[C@H](CO)NC(=O)[C@@H](N)CCCCN=[N+]=[N-])[C@@H](C)O)CCCCCCC=CCCC[C@@](C)(C(N)=O)NC(=O)[C@H](CC(C)C)NC1=O [MP-0178] |  |  |  |  |  |  |  | 235 |  |  | 2.59 | Poorly Behaved | 0.79 | > 50.6 | 1.31 | 
CC(=O)N[C@@H](CCCCN=[N+]=[N-])C(=O)NCCC(=O)N[C@@H](CC(C)C)C(=O)N[C@H](C(=O)N[C@@H](Cc1ccccc1)C(=O)N[C@]1(C)CCCCCCC=CCCC[C@@](C)(C(=O)N[C@@H](CO)C(=O)N[C@@H](C)C(=O)N[C@@H](C)C(N)=O)NC(=O)[C@H](CC2CCC2)NC(=O)[C@H](CCC(N)=O)NC(=O)[C@H](C)NC(=O)[C@H](Cc2c[nH]c3cc(F)ccc23)NC(=O)[C@H](Cc2ccc(O)cc2)NC(=O)[C@H](CCC(=O)O)NC1=O)[C@@H](C)O [MP-004] | 110 (≈ 219 µg/mL) |  |  |  |  |  |  | 201 |  |  | 2.9 |  | 10.1 | 23.9 | 7.44 | 
CC(C)C[C@H](NC(=O)CCNC(=O)[C@@H](N)CCCCN=[N+]=[N-])C(=O)N[C@H](C(=O)N[C@@H](Cc1ccccc1)C(=O)N[C@]1(C)CCCCCCC=CCCC[C@@](C)(C(N)=O)NC(=O)[C@H](CC(C)C)NC(=O)[C@H](CC(C)C)NC(=O)[C@H](C)NC(=O)[C@H](Cc2c[nH]c3ccccc23)NC(=O)[C@H](Cc2ccc(O)cc2)NC(=O)[C@H](CCC(=O)O)NC1=O)[C@@H](C)O [MP-0176] (H-[Lys(N3)][βAla]LTF[R8]EYWALL[S5]-NH2; staple 6-13) |  |  |  |  |  |  |  | 212 |  |  | 2.85 | Poorly Behaved | 6.97 | > 50.6 | 0.217 | 
CC(=O)N[C@@H](CCCCN=[N+]=[N-])C(=O)NCCC(=O)NCC(=O)N[C@H](C(=O)N[C@@H](Cc1ccccc1)C(=O)N[C@]1(C)CCCCCCC=CCCC[C@@](C)(C(=O)N[C@@H](CO)C(=O)N[C@@H](C)C(=O)N[C@@H](C)C(N)=O)NC(=O)[C@H](CC2CCC2)NC(=O)[C@H](CCC(N)=O)NC(=O)[C@H](C)NC(=O)[C@H](Cc2c[nH]c3ccccc23)NC(=O)[C@H](Cc2ccc(O)cc2)NC(=O)[C@H](CCC(=O)O)NC1=O)[C@@H](C)O [MP-261] (Ac-[Lys(N3)][βAla]GTF[R8]EYWAQ[Cba][S5]SAA-NH2; staple 6-13) | 89 (≈ 170 µg/mL) |  |  |  |  |  |  | 222 |  |  | 2.62 |  | 8.826 | > 50.6 | 0.273 | 
CC(=O)N[C@@H](CCCCN=[N+]=[N-])C(=O)NCCC(=O)N[C@@H](CC(C)C)C(=O)N[C@H](C(=O)N[C@@H](CC1CCC1)C(=O)N[C@]1(C)CCCCCCC=CCCC[C@@](C)(C(=O)N[C@@H](CO)C(=O)N[C@@H](C)C(=O)N[C@@H](C)C(N)=O)NC(=O)[C@H](Cc2c[nH]c3ccccc23)NC(=O)[C@H](CCC(N)=O)NC(=O)[C@H](C)NC(=O)[C@H](Cc2ccccc2)NC(=O)[C@H](Cc2ccc(O)cc2)NC(=O)[C@H](CCC(=O)O)NC1=O)[C@@H](C)O [MP-791] (Ac-[Lys(N3)][βAla]LT[Cba][R8]EYFAQW[S5]SAA-NH2; staple 6-13) | 28 (≈ 55.2 µg/mL) |  |  |  |  |  |  | 197 |  |  | 1.34 |  | 45.16 | 34.6 | > 10 | 
CC(=O)N[C@@H](CCCCN=[N+]=[N-])C(=O)NCCC(=O)N[C@@H](CC(C)C)C(=O)N[C@H](C(=O)N[C@@H](Cc1ccccc1)C(=O)N[C@]1(C)CCCCCCC=CCCC[C@@](C)(C(=O)N[C@@H](CO)C(=O)N[C@@H](C)C(=O)N[C@@H](C)C(N)=O)NC(=O)[C@H](CC2CCC2)NC(=O)[C@H](CCC(N)=O)NC(=O)[C@H](C)NC(=O)[C@H](Cc2cccc(C(F)(F)F)c2)NC(=O)[C@H](Cc2ccc(O)cc2)NC(=O)[C@H](CCC(=O)O)NC1=O)[C@@H](C)O [MP-030] (Ac-[Lys(N3)][βAla]LTF[R8]EY[Phe(3-CF3)]AQ[Cba][S5]SAA-NH2; staple 6-13) |  |  |  |  |  |  |  | 192 |  |  |  | Poorly Behaved | 8.06 | > 50.6 | 0.408 | Poorly Behaved

Reference: publication PMC10786919, “Design-rules for stapled peptides with in vivo activity and their application to Mdm2/X antagonists” (Nature Communications, 2024)
